Activity calls are given as the source filed them.

Experimental findings from ChEMBL document CHEMBL1201862, “PubChem BioAssay data set” (2004) are described below.

The nature of assay [1]: A High Throughput Confirmatory Assay used to Identify Novel Compounds that Inhibit Mycobacterium Tuberculosis in the absence of Glycerol. The class given is functional.
A further assay addresses Aspartyl aminopeptidase (Plasmodium falciparum 3D7, UniProt Q8I2J3). Put plainly: Counterscreen for inhibitors of M1 and M17 aminopeptidases: QFRET-based biochemical high throughput dose response assay for inhibitors of the Plasmodium falciparum M18 Aspartyl Aminopeptidase (PFM18AAP). [Related PubChem assays: 1619 (Screening assay (M17LAP inhibitors).), 1445 (Screening assay (M1AAP inhibitors).)]. For orientation: The purpose of a counterscreen is to sort out artefacts and off-target activity.

The target in the next assay is T1, Leucine aminopeptidase (Plasmodium falciparum 3D7, UniProt Q8IL11).
T1 sequence (Q8IL11 whole entry): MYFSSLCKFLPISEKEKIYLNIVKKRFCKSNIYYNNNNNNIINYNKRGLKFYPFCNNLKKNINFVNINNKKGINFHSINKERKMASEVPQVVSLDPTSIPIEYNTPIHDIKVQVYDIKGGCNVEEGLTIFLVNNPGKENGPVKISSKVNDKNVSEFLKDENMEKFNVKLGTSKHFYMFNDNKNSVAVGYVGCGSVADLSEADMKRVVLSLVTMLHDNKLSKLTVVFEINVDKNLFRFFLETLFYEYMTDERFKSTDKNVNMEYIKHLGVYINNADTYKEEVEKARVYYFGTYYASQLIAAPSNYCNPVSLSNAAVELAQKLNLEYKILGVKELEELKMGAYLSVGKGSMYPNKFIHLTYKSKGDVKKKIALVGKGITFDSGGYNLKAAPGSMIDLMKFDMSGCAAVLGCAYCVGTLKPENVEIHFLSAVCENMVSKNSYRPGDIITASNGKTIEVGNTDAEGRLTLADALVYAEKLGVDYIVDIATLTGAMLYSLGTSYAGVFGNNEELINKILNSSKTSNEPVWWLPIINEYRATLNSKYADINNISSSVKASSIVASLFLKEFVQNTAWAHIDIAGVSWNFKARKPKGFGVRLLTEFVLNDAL
Put plainly: P. falciparum M17LAP inhibitors, primary screen, biochemical, fluorogenic H-Leu-NHMec substrate, 1536-well (AID 1619). The class given is functional.

The target in the next assay is Procathepsin L (Homo sapiens, UniProt P07711). Description: cathepsin L inhibitors, dose response, counter-screen for M1/M17 aminopeptidase inhibitor project, biochemical, QFRET, 1536-well (AID 2214).
Procathepsin L, sequence (P07711 whole entry): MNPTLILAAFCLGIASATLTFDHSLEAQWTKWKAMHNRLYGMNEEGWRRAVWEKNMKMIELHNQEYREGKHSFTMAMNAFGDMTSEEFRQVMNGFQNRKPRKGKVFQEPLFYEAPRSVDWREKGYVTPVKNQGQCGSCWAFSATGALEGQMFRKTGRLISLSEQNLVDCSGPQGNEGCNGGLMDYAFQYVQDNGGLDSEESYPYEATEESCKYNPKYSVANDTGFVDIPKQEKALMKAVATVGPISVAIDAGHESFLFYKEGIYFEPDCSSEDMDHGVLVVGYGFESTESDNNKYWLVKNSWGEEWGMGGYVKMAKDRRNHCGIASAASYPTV
Assay [2] addresses T2, Replicative DNA helicase DnaB (Mycobacterium tuberculosis, UniProt P9WMR3).
T2 sequence (P9WMR3 whole entry): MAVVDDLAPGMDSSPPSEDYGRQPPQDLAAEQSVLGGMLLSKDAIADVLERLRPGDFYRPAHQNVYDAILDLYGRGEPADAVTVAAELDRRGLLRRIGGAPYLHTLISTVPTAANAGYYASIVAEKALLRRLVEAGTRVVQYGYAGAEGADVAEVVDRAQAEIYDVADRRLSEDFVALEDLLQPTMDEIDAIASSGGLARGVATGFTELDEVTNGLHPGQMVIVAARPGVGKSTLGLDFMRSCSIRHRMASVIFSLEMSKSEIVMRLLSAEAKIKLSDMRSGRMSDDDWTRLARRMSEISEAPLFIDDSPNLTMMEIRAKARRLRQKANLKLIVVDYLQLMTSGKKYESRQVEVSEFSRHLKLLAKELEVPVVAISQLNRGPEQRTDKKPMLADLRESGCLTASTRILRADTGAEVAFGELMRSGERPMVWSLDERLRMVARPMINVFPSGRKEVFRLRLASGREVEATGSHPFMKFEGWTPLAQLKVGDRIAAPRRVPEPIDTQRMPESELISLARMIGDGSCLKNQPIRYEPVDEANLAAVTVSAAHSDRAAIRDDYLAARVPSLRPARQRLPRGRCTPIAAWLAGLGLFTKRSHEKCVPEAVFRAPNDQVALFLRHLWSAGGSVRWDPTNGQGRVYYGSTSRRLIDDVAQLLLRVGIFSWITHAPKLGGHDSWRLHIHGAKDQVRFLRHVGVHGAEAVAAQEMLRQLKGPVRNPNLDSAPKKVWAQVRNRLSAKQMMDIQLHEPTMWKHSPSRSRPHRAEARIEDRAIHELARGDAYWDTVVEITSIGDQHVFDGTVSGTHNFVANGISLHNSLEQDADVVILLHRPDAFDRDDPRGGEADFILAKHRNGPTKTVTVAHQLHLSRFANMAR
Description: DnaB intein splicing inhibitors, dose response, biochemical, cell-free fluorescence (AID 449749). The class given is functional.

A further assay addresses T3, Protein RecA (Mycobacterium tuberculosis, UniProt P9WHJ3).
T3 sequence (P9WHJ3 whole entry): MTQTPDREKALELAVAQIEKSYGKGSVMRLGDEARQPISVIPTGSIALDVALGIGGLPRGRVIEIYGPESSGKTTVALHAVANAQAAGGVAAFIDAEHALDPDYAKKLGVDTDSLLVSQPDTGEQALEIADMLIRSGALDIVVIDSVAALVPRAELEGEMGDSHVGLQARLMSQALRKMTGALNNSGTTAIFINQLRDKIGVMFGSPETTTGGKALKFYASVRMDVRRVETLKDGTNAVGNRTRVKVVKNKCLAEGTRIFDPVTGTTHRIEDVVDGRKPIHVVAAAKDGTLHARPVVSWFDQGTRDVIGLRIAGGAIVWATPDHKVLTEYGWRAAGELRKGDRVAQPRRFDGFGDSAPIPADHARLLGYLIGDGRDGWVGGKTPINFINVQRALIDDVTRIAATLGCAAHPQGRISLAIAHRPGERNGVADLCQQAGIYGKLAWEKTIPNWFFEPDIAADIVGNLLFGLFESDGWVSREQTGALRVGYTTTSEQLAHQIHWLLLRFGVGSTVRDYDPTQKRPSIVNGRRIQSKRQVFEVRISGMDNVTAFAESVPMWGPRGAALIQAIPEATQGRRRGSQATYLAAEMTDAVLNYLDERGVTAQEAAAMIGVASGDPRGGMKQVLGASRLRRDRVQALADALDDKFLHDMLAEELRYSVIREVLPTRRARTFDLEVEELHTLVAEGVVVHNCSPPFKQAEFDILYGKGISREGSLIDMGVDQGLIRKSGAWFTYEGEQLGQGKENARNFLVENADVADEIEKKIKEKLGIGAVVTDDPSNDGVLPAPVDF
Description: Fluorescence Cell-Free Homogeneous Dose Retest to Identify Inhibitors of RecA-Intein Splicing Activity. [Related pubchem assays (depositor defined):AID2097, AID2223, AID489010, AID492950]. The assay is classed as functional.

The nature of assay [3]: HepG2 cell cytotoxicity, dose response, cytotoxicity control, plate reader, cherry-pick, antagonist series (AID 743416). The assay is classed as functional, cell-based.
Assay [4] can be described thus: HEK293 cell cytotoxicity, dose response, cytotoxicity control, plate reader, cherry-picked samples (AID 743446). The assay is classed as functional, cell-based.
Assay [5] can be described thus: MC4R antagonists, dose response, counter-screen for LGR2 antagonist project, cell-based, plate reader, cherry pick (AID 743444).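 Note: transfected HEK 293 cells stimulated with alpha-MSH peptide; potency of inhibitors of the alpha-MSH evoked signal.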 The assay is classed as functional.
Assay [6] is described as follows: LGR2 antagonists, dose response, cell-based, HEK293, CRE-luciferase reporter, cherry pick, set 2 (AID 743343).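 Note: transfected cells were stimulated with diluted bursicon conditioned medium after compound addition.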 The assay is classed as functional. In general terms: In a reporter assay the amount or activity of a reporter protein is the signal.
The target of a further assay is T4, Estrogen receptor (Homo sapiens, UniProt P03372).
T4 sequence (P03372 whole entry): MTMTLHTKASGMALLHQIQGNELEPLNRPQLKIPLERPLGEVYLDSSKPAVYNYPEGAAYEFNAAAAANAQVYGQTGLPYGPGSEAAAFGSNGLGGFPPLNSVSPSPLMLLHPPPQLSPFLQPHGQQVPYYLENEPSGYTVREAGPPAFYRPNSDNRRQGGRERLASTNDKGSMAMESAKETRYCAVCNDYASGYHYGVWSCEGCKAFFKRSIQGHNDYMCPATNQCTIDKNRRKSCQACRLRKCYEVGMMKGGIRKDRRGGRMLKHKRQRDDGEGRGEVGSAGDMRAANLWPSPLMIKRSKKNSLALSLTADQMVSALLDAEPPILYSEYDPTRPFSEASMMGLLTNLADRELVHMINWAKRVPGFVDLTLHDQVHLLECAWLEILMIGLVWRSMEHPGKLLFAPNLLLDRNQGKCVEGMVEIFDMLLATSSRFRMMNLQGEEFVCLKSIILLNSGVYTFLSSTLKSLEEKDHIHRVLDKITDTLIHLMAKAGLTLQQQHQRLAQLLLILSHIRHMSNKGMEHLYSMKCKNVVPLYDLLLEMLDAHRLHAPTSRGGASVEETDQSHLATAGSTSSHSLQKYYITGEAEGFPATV
Description: potentiators of ERα–SRC-1 coactivator binding, dose response, biochemical, TR-FRET, ERα LBD (AID 737). (In general: In TR-FRET formats the signal depends on donor and acceptor labels being close together.)

Assay [7] can be described thus: inhibitors of Bluetongue virus cytopathic effect, confirmation, arbovirus, BSR cells (AID 1250).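 Note: protection from viral cytopathic effect measured as cell viability by ATP luminescence.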 The assay is classed as functional.
The next assay deals with T5, Bcl-2-like protein 10 (Homo sapiens, UniProt Q9HD36).
T5 sequence (Q9HD36 whole entry): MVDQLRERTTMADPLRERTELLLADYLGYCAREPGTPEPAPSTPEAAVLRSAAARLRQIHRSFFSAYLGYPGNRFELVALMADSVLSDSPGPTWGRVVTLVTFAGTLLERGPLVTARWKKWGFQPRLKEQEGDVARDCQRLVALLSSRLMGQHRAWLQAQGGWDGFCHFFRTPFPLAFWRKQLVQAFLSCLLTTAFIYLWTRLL
Description: Biochemical TR3 FP assay of Bcl-B inhibitor potency, EC50 (AID 1243). The class given is functional.

For a further assay, the system named is HeLa. Put plainly: Cytotoxicity counterscreen assay for transcriptional activators of heat shock protein 70 (Hsp70). [Related pubchem assays: 1203, 1252 ]. The class given is functional. To be noted: Homo sapiens.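 Note: cells exposed to compound for 16 hours before readout.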
Assay [8] in a line: growth suppression of beta-catenin-knockout colon cells, dose response, cell-based, HCT116, human colon tumor (AID 1045).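 Note: HCT116 colon tumor cells with beta catenin knocked out; cells exposed to compound for 60 hours.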 The class given is functional.
Assay [9] in a line: growth suppression of PTEN-null colon cells, dose response, cell-based, HCT116 PTEN knockout (AID 1047).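 Note: HCT116 colon tumor cells with PTEN knocked out; cells exposed to compound for 60 hours before readout; potency for loss of cell viability measured by luminescence.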 The assay is classed as functional.
Assay [10] deals with T6, High affinity choline transporter 1 (Homo sapiens, UniProt Q9GZV3).
T6 sequence (Q9GZV3 whole entry): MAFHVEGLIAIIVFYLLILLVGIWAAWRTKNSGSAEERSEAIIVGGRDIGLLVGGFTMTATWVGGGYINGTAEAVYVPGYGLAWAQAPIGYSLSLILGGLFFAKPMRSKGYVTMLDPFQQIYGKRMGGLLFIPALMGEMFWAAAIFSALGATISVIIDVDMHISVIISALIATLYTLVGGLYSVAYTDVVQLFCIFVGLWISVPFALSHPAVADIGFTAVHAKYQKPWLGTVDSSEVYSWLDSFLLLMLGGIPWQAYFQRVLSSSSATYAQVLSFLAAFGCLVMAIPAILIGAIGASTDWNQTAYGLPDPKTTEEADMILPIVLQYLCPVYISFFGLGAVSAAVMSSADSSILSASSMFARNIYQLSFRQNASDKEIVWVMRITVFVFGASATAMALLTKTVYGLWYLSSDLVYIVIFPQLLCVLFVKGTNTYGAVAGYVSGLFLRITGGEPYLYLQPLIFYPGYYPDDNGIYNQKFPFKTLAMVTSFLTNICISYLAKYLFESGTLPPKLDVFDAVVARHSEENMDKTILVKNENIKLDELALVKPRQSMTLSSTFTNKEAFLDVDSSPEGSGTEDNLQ
Description: CHT inhibitors, dose response, cell-based, 5-point CRC, membrane potential dye (AID 504840). The assay is classed as functional.

The target of assay [11] is T7, Sphingosine 1-phosphate receptor 2 (Homo sapiens, UniProt O95136). Put plainly: Dose Response Cell Based Assay for Agonists of the S1P2 Receptor of Purchased Analogues. [Related pubchem assays: 729, 843, 854, 736 ]. The class given is functional.
T7 sequence (O95136 whole entry): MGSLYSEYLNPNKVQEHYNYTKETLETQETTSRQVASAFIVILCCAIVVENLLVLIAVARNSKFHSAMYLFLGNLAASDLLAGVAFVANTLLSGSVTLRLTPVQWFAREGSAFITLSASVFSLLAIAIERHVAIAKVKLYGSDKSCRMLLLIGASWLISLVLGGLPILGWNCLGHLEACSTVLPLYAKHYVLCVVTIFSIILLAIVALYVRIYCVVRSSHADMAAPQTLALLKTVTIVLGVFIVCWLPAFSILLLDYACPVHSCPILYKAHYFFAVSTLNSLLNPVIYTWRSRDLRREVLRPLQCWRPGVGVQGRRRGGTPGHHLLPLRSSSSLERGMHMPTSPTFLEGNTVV
The target in assay [12] is T7, Sphingosine 1-phosphate receptor 2. Description: Dose Response Cell Based Assay for Agonists of the S1P2 Receptor. [Related pubchem assays: 729, 736, 843 ]. The class given is functional.

Aspartyl aminopeptidase, sequence (Q8I2J3 whole entry): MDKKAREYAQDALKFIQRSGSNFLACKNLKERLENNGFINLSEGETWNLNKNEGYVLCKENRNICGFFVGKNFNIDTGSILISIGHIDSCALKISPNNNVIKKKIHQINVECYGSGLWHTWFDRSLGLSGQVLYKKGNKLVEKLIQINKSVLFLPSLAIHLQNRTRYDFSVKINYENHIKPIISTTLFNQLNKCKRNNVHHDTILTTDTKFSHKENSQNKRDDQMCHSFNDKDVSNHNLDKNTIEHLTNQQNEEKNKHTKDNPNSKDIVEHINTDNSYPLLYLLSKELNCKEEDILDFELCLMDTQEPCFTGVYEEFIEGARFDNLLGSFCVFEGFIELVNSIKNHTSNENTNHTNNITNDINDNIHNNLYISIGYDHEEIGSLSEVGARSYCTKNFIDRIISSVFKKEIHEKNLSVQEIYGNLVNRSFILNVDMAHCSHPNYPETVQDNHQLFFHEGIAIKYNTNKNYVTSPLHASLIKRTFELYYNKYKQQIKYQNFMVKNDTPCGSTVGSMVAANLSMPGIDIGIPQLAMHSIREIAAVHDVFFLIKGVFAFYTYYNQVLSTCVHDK

With `Cc1nnc(SCc2ccccc2Cl)n(N)c1=O`, the IC50 in [1] was > 100 µM (active).
In the case of `Cc1ccc(SCC2=NNC(=O)C2)cc1`, the results for the IC50 against Aspartyl aminopeptidase, on Leucine aminopeptidase and against Procathepsin L were > 73.5 µM (not active), 1.77 µM (active) and > 59.6 µM (not active), respectively. The AC50 in [2] is 3.72 µM (active). Also, the EC50 on Protein RecA is 1.01 µM (active).
Turning to `C1COCCO1.O=C(Nc1nc(-c2ccc(S(=O)(=O)N3CCOCC3)cc2)cs1)c1ccccc1`, the AC50 was 36.7 µM (active) in assay [3], > 52 µM (inactive) in assay [4], 44.3 µM (active) in [5] and 42 µM (active) in assay [6]. Further, the EC50 on Estrogen receptor was 15.1 µM (active).
Regarding `CN(Cc1ccccc1NC(=O)c1ccc(S(=O)(=O)N(C)C)cc1)C1CCCCC1`, the IC50 in assay [7] is 29.9 µM (active).
As to `O=C(O)c1cccc(-c2ccc(/C=N/Nc3ccc([N+](=O)[O-])cn3)o2)c1`, the EC50 at Bcl-2-like protein 10 was 9.64 µM (active).
`Cc1cc(C(=O)Cn2ncc(Cl)c(Cl)c2=O)c(C)n1CC(F)(F)F`: the AC50 in [2] is 3.01 µM (active). In the assay with HeLa, the CC50 is listed as > 11 µM (not active). Moreover, the EC50 in assay [8] was 2.06 µM (active); in assay [9], 3.03 µM (active); on Protein RecA it was 2.72 µM (active). Also, the IC50 in assay [10] is 20.9 µM (active).
With `Cc1cc(C(=O)CN2C(=O)CCC2=O)c(C)n1Cc1ccccc1`, the EC50 in assay [11] was 1.2 µM (active); in assay [12], 2.85 µM (active).

As a reminder, the IC50 is the concentration that gives 50% inhibition. One may read the AC50 as the midpoint of the concentration-response curve, whichever way the signal moves. In general, EC50 refers to the concentration at which the effect is half-maximal. In general, CC50 refers to the concentration giving 50% cytotoxicity.
